Where two headings read alike, the source gives them in different places.
Key:
A431 cells (WT EGFR) = experiment: Cell proliferation (CellTiter Glo, 72 hr), A431; format: cell-based; conditions: Homo sapiens, A-431
Protocol: (§1) A431 human epidermoid carcinoma, H1975 human NSCLC and HCC827 human NSCLC adenocarcinoma cells were obtained from the American Type Culture Center (Manassas, Va.). A431 cells were grown in DMEM (Invitrogen, Carlsbad, Calif.) supplemented with 10% FBS (HyClone, South Logan, Utah) and 1% Penicillin-Streptomycin (P/S, Lonza, Walkersville, Md.).
(§2) Growth inhibition (GI50) values were determined by Graph Pad Prism.

[1] = system: H1975 cells (EGFR L858R/T790M); experiment: Cell proliferation (CellTiter Glo, 72 hr), H1975; format: cell-based, human; conditions: for GI50: Homo sapiens, NCI-H1975; for Ratio WT/mutant: proliferation GI50, WT (A431) vs H1975
Protocol: as §1, §2

[2] = system: HCC827 cells (EGFR delE746-A750); experiment: Cell proliferation (CellTiter Glo, 72 hr), HCC827; format: cell-based, human; conditions: for GI50: Homo sapiens; for Ratio WT/mutant: proliferation GI50, WT (A431) vs HCC827
Protocol: as §1, §2

[3] = target: EGFR L858R/T790M (H1975 cells) (Homo sapiens (Human), UniProt P00533, L858R/T790M); experiment: EGFR signaling immunoblot (1 hr) in H1975 cells; format: cell-based; conditions: signaling EC50, WT (A431) vs H1975
Protocol: as §1
(§3) All primary antibodies were obtained from Cell Signaling (Danvers, Mass.) and used at 1:1000. Secondary antibodies were used at 1:10,000. Goat anti-mouse IgG IRDye 800CW antibody was obtained from LiCor Biosciences (Lincoln, Nebr.) and goat anti-rabbit IgG Alexa Fluor 680 was obtained from Invitrogen.
(§4) Cells were grown in 12-well plates (Corning, Coring, N.Y.) to 90% confluence and then incubated in low-serum (0.1% FBS) media for 16-18 hr. […] A431 cells were then stimulated with 50 ng/ml EGF (Peprotech, Rocky Hill, N.J.) for 15 min. After treatment, cell monolayers were washed with cold PBS (Invitrogen) and immediately lysed by scrapping into 60 uL cold Cell Extraction Buffer (Invitrogen) supplemented with Complete Protease inhibitors (Roche, Indianapolis, Ind.) and PhosphoSTOP (Roche) phosphatase inhibitors.
(§5) Phospho-protein signals were quantitated using Odyssey Infrared Imaging (Li-Cor Biosciences).
Blots were normalized as indicated above. […] Normalized data was fitted using a sigmoidal curve analysis program (Graph Pad Prism version 5) with variable Hill slope to determine the EC50 values.

[4] = target: EGFR delE746-A750 (HCC827 cells) (Homo sapiens (Human), UniProt P00533, DEL746-750); experiment: EGFR signaling immunoblot (1 hr) in HCC827 cells; format: cell-based; conditions: signaling EC50, WT (A431) vs HCC827
Protocol: as §1, §3, §4, §5
Blots were normalized as indicated above. […]

EGFR T790M/L858R [5] = target: T1, EGFR T790M/L858R (Homo sapiens (Human), UniProt P00533, L858R/T790M); experiment: Omnia biochemical assay, EGFR-T790M/L858R; conditions: biochemical IC50, WT EGFR vs T790M/L858R
Protocol: Kinase reactions were started with the addition of 45 μL of the ATP/Tyr-Sox peptide substrate mix and monitored every 71 seconds for 60 minutes at λex360/λem485 in a Synergy^4 plate reader from BioTek (Winooski, Vt.).

pEGFR in H1975 cells = pEGFR in H1975 cells (Homo sapiens (Human), UniProt P00533, L858R/T790M); conditions: 500 nM for 1 hr, 0-24 hr
EGFR T790M/L858R [6] = target: T1, EGFR T790M/L858R; conditions: for covalent modification of EGFR T790M/L858R: MS analysis
[7] = A431 cells, 72 hr, read-out: WT EGFR GI50
[8] = H1975 cells, 72 hr, read-out: H1975 GI50
[9] = HCC827 cells, 72 hr, read-out: HCC827 GI50
[10] = Table 2, A431 cells (WT EGFR), read-out: Comparative GI50, A431
[11] = Table 2, H1975 cells (L858R/T790M), read-out: Comparative GI50, H1975
[12] = Table 2, HCC827 cells (delE746-A750), read-out: Comparative GI50, HCC827

Row | SMILES | GI50 (A431 cells (WT EGFR); [7]) | GI50 [1, 8] | GI50 [2, 9] | Ratio WT/mutant [1] | Ratio WT/mutant [2] | also measured
1 | C=CC(=O)Nc1cccc(Oc2nc(Nc3ccc(OC)cc3OC)ncc2Br)c1 [Compound I-13, N-(3-(5-bromo-2-(2,4-dimethoxyphenylamino)pyrimidin-4-yloxy)phenyl)acrylamide] | > 1000 nM | 500 to 1000 nM | 100 to 500 nM |  |  | 
2 | C=CC(=O)Nc1cccc(Oc2nc(Nc3ccc(OC)cc3OC)ncc2C(F)(F)F)c1 [Compound I-9, N-(3-(2-(2,4-dimethoxyphenylamino)-5-(trifluoromethyl)pyrimidin-4-yloxy)phenyl)acrylamide] | > 1000 nM | 100 to 500 nM | 100 to 500 nM |  |  | 
3 | C=CC(=O)Nc1cccc(Nc2nc(Nc3ccccc3OC)ncc2Cl)c1 [Compound I-18, N-(3-(5-chloro-2-(2-methoxyphenylamino)pyrimidin-4-ylamino)phenyl)acrylamide] | > 1000 nM | > 1000 nM | 500 to 1000 nM | >1 | >5 | 
4 | C=CC(=O)Nc1cccc(Nc2nc(Nc3ccc(OC)cc3OC)ncc2Br)c1 [Compound I-20, N-(3-(5-bromo-2-(2,4-dimethoxyphenylamino)pyrimidin-4-ylamino)phenyl)acrylamide] | > 1000 nM | > 1000 nM | 100 to 500 nM | >1 | >10 | 
5 | C=CC(=O)Nc1cccc(Nc2nc(Nc3ccc(OC)c(OC)c3OC)ncc2C(F)(F)F)c1 [Compound I-11, N-(3-(5-(trifluoromethyl)-2-(2,3,4-trimethoxyphenylamino)pyrimidin-4-ylamino)phenyl)acrylamide] | > 1000 nM | 100 to 500 nM | 10 to 100 nM | >10 | >40 | Ratio WT/mutant [3]: >50; Ratio WT/mutant [4]: >5; GI50 (A431 cells (WT EGFR); [10]): > 1000 nM; GI50 [1, 11]: 100 to 500 nM; GI50 [2, 12]: 10 to 100 nM
6 | C=CC(=O)Nc1cccc(Nc2nc(Nc3cccc(OC)c3OC)ncc2C(F)(F)F)c1 [Compound I-16, N-(3-(2-(2,3-dimethoxyphenylamino)-5-(trifluoromethyl)pyrimidin-4-ylamino)phenyl)acrylamide] | > 1000 nM | > 1000 nM | 500 to 1000 nM |  |  | 
7 | C=CC(=O)Nc1cccc(Oc2nc(Nc3cccc(OC)c3OC)ncc2C(F)(F)F)c1 [Compound I-23, N-(3-(2-(2,3-dimethoxyphenylamino)-5-(trifluoromethyl)pyrimidin-4-yloxy)phenyl)acrylamide] | > 1000 nM | > 1000 nM | > 1000 nM |  |  | 
8 | C=CC(=O)Nc1cccc(Nc2nc(Nc3ccc(OC)c(OC)c3OC)ncc2Cl)c1 [Compound I-4, N-(3-(5-chloro-2-(2,3,4-trimethoxyphenylamino)pyrimidin-4-ylamino)phenyl)acrylamide] | > 1000 nM | 100 to 500 nM | 100 to 500 nM |  |  | 
9 | C=CC(=O)Nc1cccc(Nc2nc(Nc3ccccc3OC)ncc2Br)c1 [Compound I-22, N-(3-(5-bromo-2-(2-methoxyphenylamino)pyrimidin-4-ylamino)phenyl)acrylamide] | > 1000 nM | 500 to 1000 nM | 500 to 1000 nM |  |  | 
10 | C=CC(=O)Nc1cccc(Oc2nc(Nc3ccccc3OC)ncc2F)c1 [Compound I-19, N-(3-(5-fluoro-2-(2-methoxyphenylamino)pyrimidin-4-yloxy)phenyl)acrylamide] | > 1000 nM | > 1000 nM | 100 to 500 nM | >1 | >10 | 
11 | C=CC(=O)Nc1cccc(Nc2nc(Nc3cccc(OC)c3OC)ncc2Br)c1 [Compound I-14, N-(3-(5-bromo-2-(2,3-dimethoxyphenylamino)pyrimidin-4-ylamino)phenyl)acrylamide] |  |  |  |  |  | Ratio WT/mutant (EGFR T790M/L858R [5]): >50
12 | C=CC(=O)Nc1cccc(Oc2nc(Nc3cccc(OC)c3OC)ncc2Cl)c1 [Compound I-17, N-(3-(5-chloro-2-(2,3-dimethoxyphenylamino)pyrimidin-4-yloxy)phenyl)acrylamide] |  |  |  |  |  | Ratio WT/mutant (EGFR T790M/L858R [5]): >35
13 | C=CC(=O)Nc1cccc(Oc2nc(Nc3cccc(OC)c3OC)ncc2Br)c1 [Compound I-6, N-(3-(5-bromo-2-(2,3-dimethoxyphenylamino)pyrimidin-4-yloxy)phenyl)acrylamide] | > 1000 nM | 500 to 1000 nM | 500 to 1000 nM | >1 | >1 | 
14 | C=CC(=O)Nc1cccc(Nc2nc(Nc3ccccc3OC)ncc2C(F)(F)F)c1 [Compound I-1, N-(3-(2-(2-methoxyphenylamino)-5-(trifluoromethyl)pyrimidin-4-ylamino)phenyl)acrylamide] | > 1000 nM | 100 to 500 nM | 10 to 100 nM | >10 | >20 | Ratio WT/mutant [3]: >50; Ratio WT/mutant [4]: >50; GI50 (A431 cells (WT EGFR); [10]): > 1000 nM; GI50 [1, 11]: 100 to 500 nM; GI50 [2, 12]: 10 to 100 nM; duration of action after washout (pEGFR inhibition) (pEGFR in H1975 cells): prolonged duration of action; time to complete modification of EGFR T790M/L858R (EGFR T790M/L858R [6]; 10-fold excess of compound): ≤ 30 min; mass shift as percent of compound mass (EGFR T790M/L858R [6]; 10-fold excess of compound, MALDI): 113%; covalent modification of EGFR T790M/L858R (EGFR T790M/L858R [6]): completely modifies
15 | C=CC(=O)Nc1cccc(Nc2nc(Nc3ccc(OC)cc3OC)ncc2Cl)c1 [Compound I-21, N-(3-(5-chloro-2-(2,4-dimethoxyphenylamino)pyrimidin-4-ylamino)phenyl)acrylamide] | > 1000 nM | > 1000 nM | 500 to 1000 nM | >1 | >5 | Ratio WT/mutant [3]: >5
16 | C=CC(=O)Nc1cccc(Oc2nc(Nc3ccc(OC)c(OC)c3OC)ncc2C(F)(F)F)c1 [Compound I-10, N-(3-(5-(trifluoromethyl)-2-(2,3,4-trimethoxyphenylamino)pyrimidin-4-yloxy)phenyl)acrylamide] | > 1000 nM | 100 to 500 nM | 100 to 500 nM | >10 | >10 | Ratio WT/mutant [3]: >50
17 | C=CC(=O)Nc1cccc(Oc2nc(Nc3ccc(OC)cc3OC)ncc2Cl)c1 [Compound I-15, N-(3-(5-chloro-2-(2,4-dimethoxyphenylamino)pyrimidin-4-yloxy)phenyl)acrylamide] | > 1000 nM | > 1000 nM | 100 to 500 nM |  |  | 
18 | C=CC(=O)Nc1cccc(Nc2nc(Nc3ccc(OC)c(OC)c3OC)ncc2Br)c1 [Compound I-5, N-(3-(5-bromo-2-(2,3,4-trimethoxyphenylamino)pyrimidin-4-ylamino)phenyl)acrylamide] | > 1000 nM | > 1000 nM | 100 to 500 nM | >1 | >20 | Ratio WT/mutant [3]: >50
19 | C=CC(=O)Nc1cccc(Oc2nc(Nc3ccccc3OC)ncc2C(F)(F)F)c1 [Compound I-2, N-(3-(2-(2-methoxyphenylamino)-5-(trifluoromethyl)pyrimidin-4-yloxy)phenyl)acrylamide] | > 1000 nM | > 1000 nM | 100 to 500 nM |  |  | duration of action after washout (pEGFR inhibition) (pEGFR in H1975 cells): prolonged duration of action; covalent modification of EGFR T790M/L858R (EGFR T790M/L858R [6]): covalently modify
20 | C=CC(=O)Nc1cccc(Oc2nc(Nc3ccc(OC)c(OC)c3OC)ncc2Br)c1 [Compound I-8, N-(3-(5-bromo-2-(2,3,4-trimethoxyphenylamino)pyrimidin-4-yloxy)phenyl)acrylamide] | > 1000 nM | > 1000 nM | 100 to 500 nM |  |  | 
